These results are taken from US20090186915A1, “Compositions and methods for treatment of glioblastoma, gliosarcoma, NSCLC, and head and neck cancer” (Unibioscreen S. A., priority 2006, published 2009).

For orientation: IC50 means the concentration that inhibits the measured activity by half.

Data set [1] relates to DU-145. Description: Cell cycle kinetics by flow cytometry (PI), DU-145. Type of data set: cell-based, human. The note with it: 1 μM. The protocol: The cell cycle kinetics of prostate cancer cells left untreated or incubated with UNBS5162 were determined by flow cytometry analysis of propidium iodide (PI) nuclear staining, using previously detailed methodology. Each sample was evaluated in triplicate. Flow cytometry was undertaken using an Epics XL.MCL flow cytometer and the FACScan/CellQuest software system (Becton Dickinson, Miami, Fla.).
For orientation: A flow cytometer gives signals particle by particle.

For the next data set, the system named is Hs683. Nature of the data set: MTT colorimetric assay, Hs683 cells. The format is cell-based. The note with it: Homo sapiens, Hs 683, 72 h, 3 days of culturing, mean of six determinations, read-out: IC50 (μM) In Vitro Growth Inhibition. On the procedure:
The overall growth of human cancer cell lines was determined by means of the calorimetric MTT (3-[4,5-dimethylthiazol-2-yl]-diphenyl tetrazolium bromide; Sigma) assay, as detailed previously.
(Tetrazolium assays rely on reduction of a dye to a coloured formazan, in cell work by metabolically active cells.)

Data set [2] relates to murine and human hematopoietic stem and progenitor cells. Nature of the data set: HALO hematotoxicity assay, overall statement. Type of data set: cell-based. The protocol:
Investigation of the hematotoxic potential of UNBS5162 was undertaken by HemoGenix (Colorado Springs, Colo.). The effects of UNBS5162 on stem and progenitor cell populations from murine and human bone marrow were assessed using HALO (Hematopoietic/Hematotoxicity Assay through Luminescence Output) technology. Stem and hematopoietic progenitor cell populations were isolated from mouse and human bone marrow samples, plated at a concentration of 1.0×10^4 cells/well and cultured for 5 and 7 days, respectively, in the presence of growth factors and increasing concentrations of UNBS5162 ranging from 0.5 nM to 50 μM. The proliferative or growth potential of cell populations was determined from intracellular ATP (iATP) concentrations and a luciferin/luciferase bioluminescence signal detection system. All samples were assayed in eight replicates. The results are presented as estimated inhibitory concentration (IC) values.

Data set [3] has as its system DU-145. Description: Quantitative videomicroscopy, DU-145. Type of data set: cell-based, human. The note with it: 1 μM. The protocol: Use was made of computer-assisted phase-contrast microscopy (quantitative videomicroscopy) in the attempt to elucidate an overall picture of UNBS5162's mechanism of action. […] In addition, 10 μM UNBS5162 caused a marked enlargement in PC-3 cells by the end of the 6-day treatment period compared with the start of the experiment.

For another data set, the system named is PC-3. Description: Apoptosis by Annexin V flow cytometry, PC-3. Type of data set: cell-based, human. On the procedure: We used flow cytometry (according to the protocol found in Mijatovic et al. Neoplasia 2006) to determine the percentages of PC-3 and DU-145 positive cells for both Annexin V and propidium iodide and we observed that a maximum of 10% only of PC-3 or DU-145 cells underwent apoptotic processes following a treatment with 10 μM of the compound produced according to example 2 or example 7.
The determination of the percentage of cells undergoing apoptosis was performed using an Annexin V-FITC Apoptosis Detection Kit (Sigma) following the manufacturer's instructions. Each sample was evaluated in triplicate.

For the compound `CN(C)CCN1C(=O)c2cccc3cc(NC(N)=O)cc(c23)C1=O` [UNBS5162, N-{2-[2-(dimethylamino)ethyl]-1,3-dioxo-2,3-dihydro-1H-benzo[de]isoquinolin-5-yl}urea], the cell cycle kinetics result with DU-145 [1] is recorded as “did not significantly (P>0.05) modify”. The IC50 with Hs683 was 8.5 µM. Besides, the “concentrations that were toxic (inhibited proliferation)” value in data set [2] is on record as “higher than 1 μM”. In the data set with DU-145 [3], the “cell dynamics (videomicroscopy)” value is reported as “induced no detectable changes”. Besides, in the data set with PC-3 (10 μM), the “cells undergoing apoptotic processes (Annexin V and propidium iodide positive)” value is at most 10%. Moreover, the “induction of real (early) apoptosis” value with PC-3 (flow cytometry) is “does not induce real (early) apoptosis”.
